This note sets out measurements from PubChem BioAssay (NCI).

Test systems include U251 CNS; UACC-257 melanoma; HT29 colon; BT-549 breast; OVCAR-5 ovarian; HL-60(TB) leukemia; NCI-H460 lung; SK-MEL-2 melanoma; SN12C renal; T-47D breast.
Holding throughout (experiment): NCI-60 cell line screen, 48 h

SMILES strings stand for the structures.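 In this assay, cells in 96-well plates receive the compound at five concentrations for 48 hours. Endpoints are linearly interpolated between the surrounding concentrations. GI50 is the concentration that inhibits growth by half. TGI: total growth inhibition.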 Where only a bound is given, the exact number is not on record here.

On to `CN(C)CCNc1c2c(c(NCCN(C)C)c3c(CO)c[nH]c13)C(=O)c1ccccc1C2=O`, for which the GI50 is 3.07 µM in the assay with U251 CNS; 9.85 µM in the assay on UACC-257 melanoma; 1.4 µM in the assay with HT29 colon; 8.23 µM in the assay on BT-549 breast; 12.7 µM with OVCAR-5 ovarian; 29.9 µM in the assay with HL-60(TB) leukemia. Further, the GI50 was 1.92 µM with NCI-H460 lung, 11.2 µM in the assay on SK-MEL-2 melanoma, 1.25 µM with SN12C renal and 22.1 µM with T-47D breast. Further, the TGI is 22.5 µM with U251 CNS; over 76.2 µM in the assay with UACC-257 melanoma; over 23.2 µM in the assay with HT29 colon; 23.5 µM in the assay with BT-549 breast; 33.5 µM in the assay with OVCAR-5 ovarian; over 100 µM in the assay with HL-60(TB) leukemia. Also, the TGI with NCI-H460 lung was determined as 9.12 µM; in the assay on SK-MEL-2 melanoma, 23.2 µM; with SN12C renal, 8.33 µM; in the assay on T-47D breast, 48.2 µM.
For the compound `Cc1cc(Cl)ccc1NC(=O)NC(C)(C)COC(=O)Nc1cccc(Cl)c1`, the GI50 with U251 CNS is 4.56 µM; with UACC-257 melanoma, 8.23 µM; in the assay with HT29 colon, 7.42 µM; in the assay on BT-549 breast, 21.4 µM; in the assay on OVCAR-5 ovarian it was 8.1 µM; in the assay with HL-60(TB) leukemia, 9.71 µM. The GI50 is 4.86 µM with NCI-H460 lung, 8.08 µM with SK-MEL-2 melanoma, 7.14 µM in the assay with SN12C renal and 5.55 µM with T-47D breast. For the same compound, the TGI in the assay on U251 CNS is 19.3 µM; with UACC-257 melanoma, 42.5 µM; in the assay with HT29 colon, 39.4 µM; in the assay on BT-549 breast, over 100 µM; with OVCAR-5 ovarian it was over 100 µM; with HL-60(TB) leukemia it was 71.9 µM. In addition, the TGI in the assay on NCI-H460 lung is 36.7 µM; in the assay on SK-MEL-2 melanoma, 34.1 µM; in the assay on SN12C renal, over 100 µM; in the assay on T-47D breast, over 100 µM.
`O=C(O)c1ccc2cccnc2c1O`: the GI50 with U251 CNS is 0.672 µM; in the assay on UACC-257 melanoma it was 2.02 µM; with HT29 colon, 2.43 µM; with BT-549 breast, 0.561 µM; with OVCAR-5 ovarian it was 2.14 µM; in the assay on HL-60(TB) leukemia, 1.89 µM. Besides, the GI50 was 0.551 µM in the assay on NCI-H460 lung, 1.95 µM in the assay on SK-MEL-2 melanoma, 0.797 µM in the assay on SN12C renal and 2.18 µM in the assay on T-47D breast. For the same compound, the TGI in the assay on U251 CNS is over 59.4 µM; in the assay with UACC-257 melanoma, 5.29 µM; in the assay with HT29 colon it was over 79 µM; with BT-549 breast, over 20 µM; in the assay with OVCAR-5 ovarian, over 100 µM; in the assay with HL-60(TB) leukemia, 6.43 µM. Besides, the TGI was 11.1 µM in the assay on NCI-H460 lung, 7.46 µM in the assay with SK-MEL-2 melanoma, over 72.2 µM with SN12C renal and 9.9 µM in the assay on T-47D breast.
As to `CC(=O)NS(=O)(=O)c1ccc(-n2nc(-c3ccccc3)cc2C2=CC(=O)C=CC2=O)cc1`, the GI50 with U251 CNS is over 100 µM; with UACC-257 melanoma it was over 100 µM; in the assay on HT29 colon, over 100 µM; in the assay on BT-549 breast, 48.9 µM; in the assay with OVCAR-5 ovarian it was over 100 µM; in the assay with HL-60(TB) leukemia, over 100 µM. The GI50 with NCI-H460 lung, with SK-MEL-2 melanoma, in the assay on SN12C renal and with T-47D breast was over 100 µM throughout. Also, the TGI in the assay with U251 CNS, in the assay with UACC-257 melanoma, in the assay on HT29 colon, in the assay on BT-549 breast, in the assay with OVCAR-5 ovarian and with HL-60(TB) leukemia was over 100 µM in each case. Further, the TGI with NCI-H460 lung, in the assay on SK-MEL-2 melanoma, with SN12C renal and in the assay with T-47D breast was over 100 µM each time.
As to `C=C1C[C@@H]2[C@H](CC[C@]3(C)C(=O)CC[C@@H]23)[C@@]2(C)C=CC(=O)C=C12`, the GI50 in the assay on U251 CNS is 23.5 µM; with HT29 colon, 37.1 µM; in the assay on BT-549 breast it was 28.9 µM; with OVCAR-5 ovarian, 37.3 µM; in the assay with HL-60(TB) leukemia it was 26 µM; in the assay with NCI-H460 lung it was 22 µM. The GI50 with SN12C renal was 21 µM; in the assay with T-47D breast it was over 51.6 µM. Besides, the TGI in the assay on U251 CNS is over 70.5 µM; in the assay with HT29 colon, over 100 µM; with BT-549 breast, over 100 µM; in the assay with OVCAR-5 ovarian, over 100 µM; with HL-60(TB) leukemia, over 63.4 µM; in the assay on NCI-H460 lung, over 63.2 µM. Also, the values for the TGI with SK-MEL-2 melanoma, in the assay on SN12C renal and with T-47D breast were over 28.3 µM, over 63.5 µM and over 100 µM, respectively.
Turning to `COc1cc(CNC(=O)CCSc2nc3ccccc3c(=O)n2Cc2cc(OC)c(OC)c(OC)c2)cc(OC)c1OC`, the GI50 in the assay on U251 CNS was 5.34 µM; with UACC-257 melanoma, 16.3 µM; in the assay on BT-549 breast, 4.9 µM; in the assay with OVCAR-5 ovarian, 9.38 µM; in the assay with HL-60(TB) leukemia it was 3.57 µM; with NCI-H460 lung, 4.19 µM. The values for the GI50 in the assay with SK-MEL-2 melanoma, in the assay with SN12C renal and with T-47D breast were 2.82 µM, 8.1 µM and 5.52 µM, respectively. Further, the TGI in the assay on U251 CNS was 59.5 µM; in the assay with UACC-257 melanoma, over 100 µM; with BT-549 breast it was 44.1 µM; in the assay with OVCAR-5 ovarian, over 100 µM; in the assay with HL-60(TB) leukemia, over 100 µM; in the assay with NCI-H460 lung, 27.5 µM. In addition, the results for the TGI in the assay on SK-MEL-2 melanoma, with SN12C renal and in the assay on T-47D breast were 8.14 µM, over 100 µM and 34 µM, respectively.
`C=C(C)[C@@H]1CC[C@]2(C)[C@H](CC=C3[C@@H]4[C@H](C)[C@@H](C)CC[C@]4(CO)CC[C@]32C)[C@@]1(C)CCCN`: the GI50 in the assay on UACC-257 melanoma is 1.04 µM; in the assay with HT29 colon it was 0.99 µM; in the assay with BT-549 breast it was 2.56 µM; with OVCAR-5 ovarian it was 1.76 µM; with HL-60(TB) leukemia, 1.03 µM; in the assay on NCI-H460 lung it was 0.914 µM. Further, the GI50 in the assay on SK-MEL-2 melanoma was 1.73 µM; in the assay with SN12C renal, 0.839 µM; in the assay with T-47D breast, 1.51 µM. For the same compound, the TGI in the assay with UACC-257 melanoma turned out to be 2.21 µM; with HT29 colon it was 2.04 µM; in the assay on BT-549 breast it was 9.23 µM; with OVCAR-5 ovarian it was 6.15 µM; in the assay on HL-60(TB) leukemia it was 2.27 µM; in the assay with NCI-H460 lung, 1.71 µM. In addition, the TGI stood at 5.04 µM with SK-MEL-2 melanoma, 1.67 µM in the assay with SN12C renal and 5.15 µM with T-47D breast.
